Experimental data reported in ChEMBL document CHEMBL3739305, “A synthetic chalcone derivative, 2-hydroxy-3',5,5'-trimethoxychalcone (DK-139), suppresses the TNFα-induced invasive capability of MDA-MB-231 human breast cancer cells by inhibiting NF-κB-mediated GROα expression” (Bioorg Med Chem Lett, 2016).
Activity calls are given as the source filed them. The calls are words filed in the database; no cut-off is given here.

How the values were obtained:
[1] = biological target: T1, Inhibitor of NF-kappa-B kinase (IKK) (Homo sapiens) (UniProt O14920+O15111+Q9Y6K9); experiment: Inhibition of IKK in human MDA-MB-231 cells assessed as decrease in TNF-alpha-induced GROalpha mRNA level pretreated with compound for 30 mins followed by addition of TNF-alpha measured after 12 hrs by RT-PCR analysis; format: cell-based
[2] = biological target: T1, Inhibitor of NF-kappa-B kinase (IKK) (Homo sapiens); experiment: Inhibition of IKK in human MDA-MB-231 cells assessed as inhibition of TNF-alpha-induced p65/RelA phosphorylation at Ser-536 residue at 5 and 10 uM pretreated for 30 mins followed by addition of TNF-alpha for 1 hr by immunoblot analysis; format: cell-based
[3] = biological target: T1, Inhibitor of NF-kappa-B kinase (IKK) (Homo sapiens); experiment: Inhibition of IKK in human MDA-MB-231 cells assessed as decrease in TNF-alpha-induced GROalpha mRNA level pretreated with compound for 30 mins followed by addition of TNF-alpha measured after 12 hrs by QR-PCR analysis; format: cell-based
[4] = biological target: T1, Inhibitor of NF-kappa-B kinase (IKK) (Homo sapiens); experiment: Inhibition of IKK in human MDA-MB-231 cells assessed as inhibition of TNF-alpha-induced GROalpha promoter activation pretreated with compound for 30 mins followed by addition of TNF-alpha for 8 hrs by luciferase reporter gene assay; format: cell-based
MDA-MB-231 [5] = experiment: Inhibition of TNF-alpha-induced cell motility in human MDA-MB-231 cells assessed as lamellipodium projection at 10 uM pretreated for 30 mins followed by addition of TNF-alpha measured after 10 mins by rhodamine- phalloidin staining based assay; format: functional
MDA-MB-231 [6] = experiment: Inhibition of TNF-alpha-induced cell invasion in human MDA-MB-231 cells assessed as decrease in spindle-like protrusions at 10 uM pretreated for 30 mins followed by addition of TNF-alpha by microscopic analysis; format: functional, cell-based
[7] = biological target: T1, Inhibitor of NF-kappa-B kinase (IKK) (Homo sapiens); experiment: Inhibition of IKK in human MDA-MB-231 cells assessed as inhibition of TNF-alpha-induced IkappaB phosphorylation at Ser-32 residue at 5 and 10 uM pretreated for 30 mins followed by addition of TNF-alpha for 1 hr by immunoblot analysis; format: cell-based
MDA-MB-231 [8] = experiment: Inhibition of TNF-alpha-induced cell migration in human MDA-MB-231 cells at 10 uM pretreated for 30 mins followed by addition of TNF-alpha measured after 6 hrs by scratch wound healing assay; format: functional, cell-based
[9] = biological target: T1, Inhibitor of NF-kappa-B kinase (IKK) (Homo sapiens); experiment: Inhibition of IKK in human MDA-MB-231 cells assessed as inhibition of TNF-alpha-induced NF-kappaB transcriptional activity pretreated with compound for 30 mins followed by addition of TNF-alpha for 8 hrs by luciferase reporter gene assay; format: cell-based
[10] = biological target: T2, Inhibitor of nuclear factor kappa-B kinase subunit beta (Homo sapiens) (UniProt O14920); experiment: Inhibition of TNF-alpha-induced IKK-beta phosphorylation at Ser180 residue in human MDA-MB-231 cells at 5 and 10 uM pretreated for 30 mins followed by addition of TNF-alpha for 1 hr by immunoblot analysis; format: cell-based
T2 sequence (whole entry): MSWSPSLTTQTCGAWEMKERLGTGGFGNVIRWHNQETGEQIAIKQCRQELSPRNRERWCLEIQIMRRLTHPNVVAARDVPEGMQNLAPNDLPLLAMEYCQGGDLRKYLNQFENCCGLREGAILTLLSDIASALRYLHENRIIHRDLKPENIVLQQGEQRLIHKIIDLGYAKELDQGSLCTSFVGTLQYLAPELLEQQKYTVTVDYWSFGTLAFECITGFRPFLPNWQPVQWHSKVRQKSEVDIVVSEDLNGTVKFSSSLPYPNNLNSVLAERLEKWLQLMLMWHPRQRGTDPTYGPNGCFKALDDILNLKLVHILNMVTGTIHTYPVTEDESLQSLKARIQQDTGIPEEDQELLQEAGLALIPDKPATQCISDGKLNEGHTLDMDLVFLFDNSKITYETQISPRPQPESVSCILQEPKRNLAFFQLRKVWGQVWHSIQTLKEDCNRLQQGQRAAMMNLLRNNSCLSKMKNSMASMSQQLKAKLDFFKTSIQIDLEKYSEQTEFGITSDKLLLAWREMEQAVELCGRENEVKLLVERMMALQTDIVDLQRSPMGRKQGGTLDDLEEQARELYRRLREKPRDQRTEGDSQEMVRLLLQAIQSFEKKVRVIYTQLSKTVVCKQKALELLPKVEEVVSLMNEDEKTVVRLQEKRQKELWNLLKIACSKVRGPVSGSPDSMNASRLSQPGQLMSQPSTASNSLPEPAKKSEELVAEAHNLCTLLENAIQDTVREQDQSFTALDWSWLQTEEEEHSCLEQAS

MDA-MB-231 [11] = experiment: Inhibition of TNF-alpha-induced cell invasion in human MDA-MB-231 cells at 10 uM pretreated for 30 mins followed by addition of TNF-alpha measured after 24 hrs by matrigel invasion assay; format: functional, cell-based
[12] = biological target: T1, Inhibitor of NF-kappa-B kinase (IKK) (Homo sapiens); experiment: Inhibition of IKK in human MDA-MB-231 cells assessed as decrease in TNF-alpha-induced GROalpha mRNA level at 10 uM pretreated for 30 mins followed by addition of TNF-alpha measured after 12 hrs by QR-PCR analysis; format: cell-based
[13] = biological target: T1, Inhibitor of NF-kappa-B kinase (IKK) (Homo sapiens); experiment: Inhibition of IKK in human MDA-MB-231 cells assessed as inhibition of TNF-alpha-induced p65/RelA phosphorylation at Ser-536 residue in nucleus at 10 uM pretreated for 30 mins followed by addition of TNF-alpha for 1 hr by immunofluorescence analysis; format: cell-based
[14] = biological target: T3, Inhibitor of nuclear factor kappa-B kinase subunit alpha (Homo sapiens) (UniProt O15111); experiment: Inhibition of TNF-alpha-induced IKK-alpha phosphorylation in human MDA-MB-231 cells at Ser176 residue at 5 and 10 uM pretreated for 30 mins followed by addition of TNF-alpha for 1 hr by immunoblot analysis; format: cell-based
T3 sequence (whole entry): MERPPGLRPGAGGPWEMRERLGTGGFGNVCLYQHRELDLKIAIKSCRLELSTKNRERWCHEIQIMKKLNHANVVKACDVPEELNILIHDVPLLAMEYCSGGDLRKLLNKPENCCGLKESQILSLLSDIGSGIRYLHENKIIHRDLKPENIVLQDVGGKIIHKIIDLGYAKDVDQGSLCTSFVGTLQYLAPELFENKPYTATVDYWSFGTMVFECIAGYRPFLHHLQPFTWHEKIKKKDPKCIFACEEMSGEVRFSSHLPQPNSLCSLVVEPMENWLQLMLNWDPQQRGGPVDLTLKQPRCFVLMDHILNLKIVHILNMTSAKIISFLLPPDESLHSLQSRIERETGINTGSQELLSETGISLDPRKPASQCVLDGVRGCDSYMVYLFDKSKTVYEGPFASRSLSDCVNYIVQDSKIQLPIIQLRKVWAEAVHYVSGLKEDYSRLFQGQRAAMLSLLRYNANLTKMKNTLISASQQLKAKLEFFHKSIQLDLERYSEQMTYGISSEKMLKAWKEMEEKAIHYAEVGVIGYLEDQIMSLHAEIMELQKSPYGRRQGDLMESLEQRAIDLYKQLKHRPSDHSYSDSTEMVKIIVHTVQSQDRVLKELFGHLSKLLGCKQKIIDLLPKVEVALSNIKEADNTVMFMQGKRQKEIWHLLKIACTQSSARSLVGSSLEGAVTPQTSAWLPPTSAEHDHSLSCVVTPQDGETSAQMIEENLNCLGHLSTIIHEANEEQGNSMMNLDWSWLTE

inhibition [1]: Dose-dependent effect
inhibition [2]: Active
inhibition [3]: Dose-dependent effect
inhibition [4]: Dose-dependent effect
inhibition [7]: Active
inhibition [9]: Dose-dependent effect
inhibition [10]: Active
fold change (FC) [12]: 4.1
inhibition [13]: Active
inhibition [14]: Active
Compound: COc1cc(/C=C/C(=O)c2cc(OC)ccc2O)cc(OC)c1
inhibition (MDA-MB-231 [5]): Active
inhibition (MDA-MB-231 [6]): Active
inhibition (MDA-MB-231 [8]): Active
inhibition (MDA-MB-231 [11]): Active
